According to patent US4087417A, “Hexapeptides and methods for their production” (Parke, Davis & Company, priority 1976, dated 1978):

Tested on: LRF (luteinizing hormone release factor) induced luteinizing hormone (LH) release
Assay: In vitro LRF antagonist test in rat anterior pituitary cell cultures
Format: cell-based
Text: Hexapeptides of this invention were screened for LRF antagonist activity in vitro using rat anterior pituitary cell cultures as described by Vale et. al. [Endocrinology, 91, 562 (1972)]. The inhibition of LRF (luteinizing hormone release factor) induced luteinizing hormone (LH) release into the culture medium is the endpoint of this in vitro bioassay.

[1] = compound 1×10^-7 molar, run with LRF Control 3.5×10^-10 molar
[2] = compound 2×10^-7 molar, run with LRF Control 3.5×10^-10 molar
[3] = compound 3.5×10^-7 molar, run with LRF Control 3.5×10^-10 molar
[4] = compound 6×10^-7 molar, run with LRF Control 3.5×10^-10 molar
[5] = compound 6×10^-8 molar, run with LRF Control 3.5×10^-10 molar
[6] = compound 1×10^-6 molar, run with LRF Control 2.5×10^-10 molar

How did the “% LH Release Inhibition” value [1] turn out when “N^α -t-Butoxycarbonyl-L-tryptophyl-N^im -benzyl-L-histidyl-O-benzyl-L-seryl-O-benzyl-L-tyrosyl-L-prolyl-D-alanine N-ethylamide” was run?
The value was 49%.

And the “LH Value” [1]?
Its value is 27.52 ng/mL.

What about the “% LH Release Inhibition” value [2] of the same substance?
The value was 93%.

What about the “LH Value” [2] of the same substance?
Its value is 14.63 ng/mL.

And the “% LH Release Inhibition” value [3]?
Its value is 104%.

What about the “LH Value” [3] of the same substance?
The value was 11.46 ng/mL.

And the “% LH Release Inhibition” value [4]?
The value was 106%.

And the “LH Value” [4]?
The value was 10.90 ng/mL.

What about the “% LH Release Inhibition” value [5] of the same substance?
The value was 11%.

And the “LH Value” [5]?
The value was 38.53 ng/mL.

What does the source list for “N^α -t-Butoxycarbonyl-L-tryptophyl-N^im -benzyl-L-histidyl-O-benzyl-L-seryl-O-benzyl-L-tyrosyl-L-prolyl-D-alanine methyl ester”?
% LH Release Inhibition [6]: 85%; LH Value [6]: 11.04 ng/mL

“LRF Control: luteinizing hormone releasing factor, also referred to as luteinizing hormone releasing hormone, LH-RH; stimulates secretion of luteinizing hormone (QHWSYGLRPG; Gonadoliberin-1; UniProt P01148 24-33, looked up) [reference compound]” was tested. Which “LH Value” (LRF alone 2.5×10^-10 molar (first run)) did it give?
Its value is 38.98 ng/mL.

And the “LH Value” (LRF alone 3.5×10^-10 molar (second run))?
Its value is 41.70 ng/mL.
